Source: US20090093544A1, “INSECTICIDAL COMPOSITIONS HAVING IMPROVED EFFECT” (Bayer CropScience AG, priority 2005, published 2009)

Tested on: Spodoptera frugiperda
Assay: Spodoptera frugiperda test (SPODFR), spray treatment of maize plants
Type: in vivo
Conditions: 168 h, read-out: Mortality/% 7 d
Experimental: Spodoptera frugiperda—Test (SPODFR)
For the preparation of an expedient active ingredient preparation, 1 part by weight of active ingredient is mixed with the stated amounts of solvent and emulsifier, and the concentrate is diluted with emulsifier-containing water to the desired concentration. If it is necessary to add ammonium salts or ammonium salts and penetration promoter, the corresponding amount is pipetted into each of the ready preparation solution after the dilution.
Maize plants (Zea mais) are treated with the active ingredient preparation in the desired concentration by spraying and are populated with caterpillars of the fall armyworm (Spodoptera frugiperda) as long as the leaves are still moist.
After the desired time, the kill in % is determined. 100% means that all caterpillars were killed; 0% means that no caterpillars were killed.

`Cc1cc(C(F)(C(F)(F)F)C(F)(F)F)ccc1NC(=O)c1cccc(Cl)c1C(=O)N[C@@H](C)CS(C)(=O)=O` [(Ib)] gave a mortality at 0.192 g/ha of 70%.
